Measured values as given in patent publication US8802597B2, “Herbicidal pyrimidines” (E I du Pont de Nemours and Company, priority 2003, dated 2014).

Assays:
Experiment in all cases: Test C postemergence
Type in all cases: in vivo
[1] = tested on: winter barley (Hordeum vulgare); settings: for Plant response rating, Barley: scale 0 to 100
Method in brief: (§1)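 Seeds sown and sprayed preemergence with test compound in non-phytotoxic solvent containing surfactant; postemergence sprays, same formulation, went onto plants 2 to 18 cm tall (1- to 4-leaf stage). Plants held in greenhouse 12 to 14 days, then visually rated against untreated controls on a 0–100 scale (0 no effect, 100 complete control).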

[2] = tested on: Italian ryegrass (Lolium multiflorum); settings: for Plant response rating, Ryegrass, Italian: scale 0 to 100
Method in brief: as §1

[3] = tested on: downy brome (Bromus tectorum); settings: for Plant response rating, Bromegrass, Downy: scale 0 to 100
Method in brief: as §1

[4] = tested on: wheat (Triticum aestivum); settings: for Plant response rating, Wheat: scale 0 to 100
Method in brief: as §1

[5] = tested on: canarygrass (Phalaris minor); settings: for Plant response rating, Canarygrass: scale 0 to 100
Method in brief: as §1

[6] = tested on: blackgrass (Alopecurus myosuroides); settings: for Plant response rating, Blackgrass: scale 0 to 100
Method in brief: as §1

[7] = tested on: windgrass (Apera spica-venti); settings: for Plant response rating, Windgrass: scale 0 to 100
Method in brief: as §1

[8] = tested on: green foxtail (Setaria viridis); settings: for Plant response rating, Foxtail, Green: scale 0 to 100
Method in brief: as §1

[9] = 62 g ai/ha, scale 0 to 100 (0 no effect, 100 complete control)
[10] = 125 g ai/ha, scale 0 to 100 (0 no effect, 100 complete control)

COC(=O)c1nc(C2CC2)nc(NO)c1Br [Compound 35]
Plant response rating, Barley ([1]; 250 g ai/ha): 40 | Plant response rating, Barley ([1]; 500 g ai/ha): 45 | plant injury at 62 g/ha ([1]; Hordeum vulgare, post-emergence, 62 g ai/ha, scale 0 to 100 (0 no effect, 100 complete control), read-out: Barley plant response rating): 20% | plant injury at 125 g/ha ([1]; Hordeum vulgare, post-emergence, 125 g ai/ha, scale 0 to 100 (0 no effect, 100 complete control), read-out: Barley plant response rating): 35% | Plant response rating, Ryegrass, Italian ([2]; 250 g ai/ha): 40 | Plant response rating, Ryegrass, Italian ([2]; 500 g ai/ha): 40 | pest or weed control at 62 g/ha ([2]; Lolium multiflorum, post-emergence, 62 g ai/ha, scale 0 to 100 (0 no effect, 100 complete control), read-out: Ryegrass, Italian plant response rating): 40% | pest or weed control at 125 g/ha ([2]; Lolium multiflorum, post-emergence, 125 g ai/ha, scale 0 to 100 (0 no effect, 100 complete control), read-out: Ryegrass, Italian plant response rating): 40% | Plant response rating, Bromegrass, Downy ([3]; 250 g ai/ha): 40 | Plant response rating, Bromegrass, Downy ([3]; 500 g ai/ha): 40 | pest or weed control at 62 g/ha ([3]; Bromus tectorum, post-emergence, 62 g ai/ha, scale 0 to 100 (0 no effect, 100 complete control), read-out: Bromegrass, Downy plant response rating): 30% | pest or weed control at 125 g/ha ([3]; Bromus tectorum, post-emergence, 125 g ai/ha, scale 0 to 100 (0 no effect, 100 complete control), read-out: Bromegrass, Downy plant response rating): 30% | Plant response rating, Wheat ([4]; 250 g ai/ha): 45 | Plant response rating, Wheat ([4]; 500 g ai/ha): 45 | plant injury at 62 g/ha ([4]; Triticum aestivum, post-emergence, 62 g ai/ha, scale 0 to 100 (0 no effect, 100 complete control), read-out: Wheat plant response rating): 35% | plant injury at 125 g/ha ([4]; Triticum aestivum, post-emergence, 125 g ai/ha, scale 0 to 100 (0 no effect, 100 complete control), read-out: Wheat plant response rating): 40% | Plant response rating, Canarygrass ([5]; 250 g ai/ha): 45 | Plant response rating, Canarygrass ([5]; 500 g ai/ha): 55 | pest or weed control at 62 g/ha ([5]; Phalaris minor, post-emergence, 62 g ai/ha, scale 0 to 100 (0 no effect, 100 complete control), read-out: Canarygrass plant response rating): 35% | pest or weed control at 125 g/ha ([5]; Phalaris minor, post-emergence, 125 g ai/ha, scale 0 to 100 (0 no effect, 100 complete control), read-out: Canarygrass plant response rating): 45% | Plant response rating, Blackgrass ([6]; 250 g ai/ha): 60 | Plant response rating, Blackgrass ([6]; 500 g ai/ha): 65 | pest or weed control at 62 g/ha ([6]; Alopecurus myosuroides, post-emergence, 62 g ai/ha, scale 0 to 100 (0 no effect, 100 complete control), read-out: Blackgrass plant response rating): 50% | pest or weed control at 125 g/ha ([6]; Alopecurus myosuroides, post-emergence, 125 g ai/ha, scale 0 to 100 (0 no effect, 100 complete control), read-out: Blackgrass plant response rating): 50% | Plant response rating, Windgrass ([7]; 250 g ai/ha): 65 | Plant response rating, Windgrass ([7]; 500 g ai/ha): 65 | pest or weed control at 62 g/ha ([7]; Apera spica-venti, post-emergence, 62 g ai/ha, scale 0 to 100 (0 no effect, 100 complete control), read-out: Windgrass plant response rating): 40% | pest or weed control at 125 g/ha ([7]; Apera spica-venti, post-emergence, 125 g ai/ha, scale 0 to 100 (0 no effect, 100 complete control), read-out: Windgrass plant response rating): 55% | Plant response rating, Foxtail, Green ([8]; 250 g ai/ha): 60 | Plant response rating, Foxtail, Green ([8]; 500 g ai/ha): 65 | pest or weed control at 62 g/ha ([8]; Setaria viridis, post-emergence, 62 g ai/ha, scale 0 to 100 (0 no effect, 100 complete control), read-out: Foxtail, Green plant response rating): 40% | pest or weed control at 125 g/ha ([8]; Setaria viridis, post-emergence, 125 g ai/ha, scale 0 to 100 (0 no effect, 100 complete control), read-out: Foxtail, Green plant response rating): 50%

Nc1nc(-c2ccc(Br)cc2)nc(C(=O)O)c1Br [Compound 136]
Plant response rating (scale of 0 to 100), Barley ([1]; 16 g ai/ha): 40 | Plant response rating (scale of 0 to 100), Barley ([1]; 31 g ai/ha): 50 | Barley plant response rating [1, 9]: 50 | Barley plant response rating [1, 10]: 55 | Plant response rating (scale of 0 to 100), Ryegrass, Italian ([2]; 16 g ai/ha): 45 | Plant response rating (scale of 0 to 100), Ryegrass, Italian ([2]; 31 g ai/ha): 50 | Plant response rating (scale of 0 to 100), Ryegrass, Italian ([2]; 62 g ai/ha): 60 | Ryegrass, Italian plant response rating [2, 10]: 65 | Plant response rating (scale of 0 to 100), Bromegrass, Downy ([3]; 16 g ai/ha): 30 | Plant response rating (scale of 0 to 100), Bromegrass, Downy ([3]; 62 g ai/ha): 45 | Bromegrass, Downy plant response rating [3, 10]: 55 | Plant response rating (scale of 0 to 100), Wheat ([4]; 16 g ai/ha): 20 | Plant response rating (scale of 0 to 100), Wheat ([4]; 31 g ai/ha): 40 | Plant response rating (scale of 0 to 100), Wheat ([4]; 62 g ai/ha): 45 | Wheat plant response rating [4, 10]: 55 | Plant response rating (scale of 0 to 100), Canarygrass ([5]; 16 g ai/ha): 40 | Plant response rating (scale of 0 to 100), Canarygrass ([5]; 31 g ai/ha): 45 | Plant response rating (scale of 0 to 100), Canarygrass ([5]; 62 g ai/ha): 55 | Canarygrass plant response rating [5, 10]: 65 | Plant response rating (scale of 0 to 100), Blackgrass ([6]; 16 g ai/ha): 40 | Plant response rating (scale of 0 to 100), Blackgrass ([6]; 31 g ai/ha): 55 | Plant response rating (scale of 0 to 100), Blackgrass ([6]; 62 g ai/ha): 65 | Blackgrass plant response rating [6, 10]: 65 | Plant response rating (scale of 0 to 100), Windgrass ([7]; 16 g ai/ha): 45 | Plant response rating (scale of 0 to 100), Windgrass ([7]; 31 g ai/ha): 60 | Plant response rating (scale of 0 to 100), Windgrass ([7]; 62 g ai/ha): 65 | Windgrass plant response rating [7, 10]: 65 | Plant response rating (scale of 0 to 100), Foxtail, Green ([8]; 16 g ai/ha): 45 | Plant response rating (scale of 0 to 100), Foxtail, Green ([8]; 31 g ai/ha): 65 | Plant response rating (scale of 0 to 100), Foxtail, Green ([8]; 62 g ai/ha): 70 | Foxtail, Green plant response rating [8, 10]: 70

CNN=Cc1nc(C2CC2)nc(N)c1Br [Compound 49]
Barley plant response rating [1, 9]: 0 | Barley plant response rating [1, 10]: 20 | Plant response rating, Barley ([1]; 250 g ai/ha): 30 | Plant response rating, Barley ([1]; 500 g ai/ha): 40 | Ryegrass, Italian plant response rating [2, 9]: 30 | Ryegrass, Italian plant response rating [2, 10]: 30 | Plant response rating, Ryegrass, Italian ([2]; 250 g ai/ha): 50 | Plant response rating, Ryegrass, Italian ([2]; 500 g ai/ha): 50 | Bromegrass, Downy plant response rating [3, 9]: 0 | Bromegrass, Downy plant response rating [3, 10]: 0 | Plant response rating, Bromegrass, Downy ([3]; 250 g ai/ha): 0 | Plant response rating, Bromegrass, Downy ([3]; 500 g ai/ha): 30 | Wheat plant response rating [4, 9]: 20 | Wheat plant response rating [4, 10]: 40 | Plant response rating, Wheat ([4]; 250 g ai/ha): 50 | Plant response rating, Wheat ([4]; 500 g ai/ha): 60 | Canarygrass plant response rating [5, 9]: 0 | Canarygrass plant response rating [5, 10]: 20 | Plant response rating, Canarygrass ([5]; 250 g ai/ha): 30 | Plant response rating, Canarygrass ([5]; 500 g ai/ha): 40 | Blackgrass plant response rating [6, 9]: 40 | Blackgrass plant response rating [6, 10]: 40 | Plant response rating, Blackgrass ([6]; 250 g ai/ha): 50 | Plant response rating, Blackgrass ([6]; 500 g ai/ha): 60 | Windgrass plant response rating [7, 9]: 40 | Windgrass plant response rating [7, 10]: 40 | Plant response rating, Windgrass ([7]; 250 g ai/ha): 60 | Plant response rating, Windgrass ([7]; 500 g ai/ha): 60 | Foxtail, Green plant response rating [8, 9]: 0 | Foxtail, Green plant response rating [8, 10]: 20 | Plant response rating, Foxtail, Green ([8]; 250 g ai/ha): 50 | Plant response rating, Foxtail, Green ([8]; 500 g ai/ha): 60

CCOC(=O)C(Cl)(Cl)c1nc(C2CC2)nc(N)c1Br [Compound 34]
Plant response rating (scale of 0 to 100), Barley ([1]; 31 g ai/ha): 20 | Barley plant response rating [1, 9]: 20 | Barley plant response rating [1, 10]: 30 | Plant response rating, Barley ([1]; 250 g ai/ha): 40 | Plant response rating (scale of 0 to 100), Ryegrass, Italian ([2]; 31 g ai/ha): 40 | Ryegrass, Italian plant response rating [2, 9]: 40 | Ryegrass, Italian plant response rating [2, 10]: 45 | Plant response rating, Ryegrass, Italian ([2]; 250 g ai/ha): 60 | Plant response rating (scale of 0 to 100), Bromegrass, Downy ([3]; 31 g ai/ha): 0 | Bromegrass, Downy plant response rating [3, 9]: 0 | Bromegrass, Downy plant response rating [3, 10]: 30 | Plant response rating, Bromegrass, Downy ([3]; 250 g ai/ha): 35 | Plant response rating (scale of 0 to 100), Wheat ([4]; 31 g ai/ha): 0 | Wheat plant response rating [4, 9]: 20 | Wheat plant response rating [4, 10]: 30 | Plant response rating, Wheat ([4]; 250 g ai/ha): 35 | Plant response rating (scale of 0 to 100), Canarygrass ([5]; 31 g ai/ha): 20 | Canarygrass plant response rating [5, 9]: 30 | Canarygrass plant response rating [5, 10]: 35 | Plant response rating, Canarygrass ([5]; 250 g ai/ha): 45 | Plant response rating (scale of 0 to 100), Blackgrass ([6]; 31 g ai/ha): 0 | Blackgrass plant response rating [6, 9]: 35 | Blackgrass plant response rating [6, 10]: 35 | Plant response rating, Blackgrass ([6]; 250 g ai/ha): 45 | Plant response rating (scale of 0 to 100), Windgrass ([7]; 31 g ai/ha): 40 | Windgrass plant response rating [7, 9]: 40 | Windgrass plant response rating [7, 10]: 50 | Plant response rating, Windgrass ([7]; 250 g ai/ha): 60 | Plant response rating (scale of 0 to 100), Foxtail, Green ([8]; 31 g ai/ha): 40 | Foxtail, Green plant response rating [8, 9]: 40 | Foxtail, Green plant response rating [8, 10]: 45 | Plant response rating, Foxtail, Green ([8]; 250 g ai/ha): 45
